How the values were obtained:
[1] = AUC (0 to infinity) in human epithelial lining fluid at 750 mg administered as single dose; assay type: ADME, tissue-based; parameters: dose 750 mg, time infinity
[2] = Plasma protein binding in human plasma at 750 mg administered as single dose; assay type: ADME, organism-based; conditions: read-out: PPB (converted)
[3] = Penetration ratio, ratio of AUC in human epithelial lining fluid to fAUC in human plasma at 750 mg administered as single dose; assay type: ADME; conditions: in vivo

## CCCCCCCCCCNCCN[C@@]1(C)C[C@H](O[C@H]2[C@H](Oc3c4cc5cc3Oc3ccc(cc3Cl)[C@@H](O)[C@@H](NC(=O)[C@@H](CC(C)C)NC)C(=O)N[C@@H](CC(N)=O)C(=O)N[C@H]5C(=O)N[C@H]3C(=O)N[C@H](C(=O)N[C@H](C(=O)O)c5cc(O)c(CNCP(=O)(O)O)c(O)c5-c5cc3ccc5O)[C@H](O)c3ccc(c(Cl)c3)O4)O[C@H](CO)[C@@H](O)[C@@H]2O)O[C@@H](C)[C@H]1O [TELAVANCIN]
[1]
  AUC(0-inf): 74800 ng·h/mL
[2]
  fraction unbound: 0.1
[3]
  Ratio: 1.01

Source: ChEMBL document CHEMBL1275431, “Telavancin penetration into human epithelial lining fluid determined by population pharmacokinetic modeling and Monte Carlo simulation” (Antimicrob Agents Chemother, 2008)
